Test results taken from the METLIN SMRT retention time set (Domingo-Almenara et al. 2019).
Blank lines part the entries; values can stand above or below the molecule they belong to.

Assay: gradient 5% acetonitrile 3 min, to 50% in 2 min, to 85% in 15 min, held 3 min, 100 µL/min
Settings: column: Zorbax Extend-C18 2.1 x 50 mm; eluents: water / acetonitrile, 0.1% formic acid
Method in brief: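 Over 3 months, pure standards in mixtures of ~100 molecules were run by HPLC coupled to a quadrupole time-of-flight mass spectrometer in positive and negative ionization mode. The column was a Zorbax Extend-C18 (2.1 × 50 mm, 1.8 μm) at 100 μL/min, eluted with water and acetonitrile each holding 0.1% formic acid, with 40 μL dead and 900 μL dwell volumes. Retention time was determined from adduct peaks chosen by software and checked manually.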

RP-LC retention time: 580 s
SMILES: Nc1ncnc2c1ncn2C1CCCO1 (stereo unspecified)

RP-LC retention time: 804 s
SMILES: O=C(NCc1cccc(Cl)c1)C1CCCN(c2ncnc3c2nc2n3CCCCC2)C1 (stereo unspecified)

RP-LC retention time: 575 s
SMILES: CCOC(=O)c1c(C)[nH]c(C(=O)N2CCC(CC(=O)NCCN3CCOCC3)CC2)c1C

RP-LC retention time: 629 s
SMILES: Cc1cc(C)n(-c2ccnc(N3CCC(C(=O)N4CCN(c5ccccn5)CC4)CC3)n2)n1

RP-LC retention time: 790 s
SMILES: O=C(NCc1ccccc1Cl)C1CCCN(S(=O)(=O)c2c[nH]c(C(=O)N3CCCC3)c2)C1 (stereo unspecified)

RP-LC retention time: 631 s
SMILES: COc1cc(C(=O)NCCNc2cc(-n3cccn3)ncn2)cc(OC)c1OC

RP-LC retention time: 981 s
SMILES: COc1ccc(-c2cn3nc(N4CCCC(C(=O)N5CCCC5)C4)sc3n2)cc1 (stereo unspecified)

RP-LC retention time: 873 s
SMILES: COc1cccc(-c2nc3ccc(Cl)cn3c2Nc2ccc(Cl)cc2)c1

RP-LC retention time: 557 s
SMILES: O=C(NCCN1CCN(C(=O)c2cc(=O)c3ccccc3o2)CC1)c1ccsc1

RP-LC retention time: 1090 s
SMILES: O=c1c2cc(-c3ccc(F)cc3)nn2ccn1Cc1ccc(Cl)cc1

RP-LC retention time: 651 s
SMILES: CC(C)CNC(=O)C1Cn2cccc2C(=O)N1 (stereo unspecified)

RP-LC retention time: 723 s
SMILES: CCn1cc(CC(=O)NCc2ccc(F)cc2F)c2cccnc21

RP-LC retention time: 812 s
SMILES: Cc1cc2c(=O)n(CC(=O)Nc3ccc(F)cc3Cl)ccc2s1

RP-LC retention time: 623 s
SMILES: CC(=O)SCc1nc(SCC(=O)Nc2ccccc2C)n[nH]1

RP-LC retention time: 616 s
SMILES: O=C(CCc1nnn2c1CN(C(=O)C1CCCC1)CC2)N1CCOCC1

RP-LC retention time: 722 s
SMILES: CN(C(=O)Cn1cnc2nc3c(cc2c1=O)CCCC3)c1ccccc1F

RP-LC retention time: 752 s
SMILES: COc1ccc(-c2noc(C3CCCN3C(=O)Nc3ccc4c(c3)OCCO4)n2)cc1 (stereo unspecified)

RP-LC retention time: 1210 s
SMILES: COc1ccc(Cl)cc1NC(=O)c1cc(C2CC2)n2nccc2n1

RP-LC retention time: 1130 s
SMILES: COc1cccc(-c2noc(C3CCCN3C(=O)Nc3cc(Cl)ccc3OC)n2)c1 (stereo unspecified)

RP-LC retention time: 699 s
SMILES: O=C(NCCc1csc(C2CCN(C(=O)c3cc(F)ccc3F)CC2)n1)C1CC1

RP-LC retention time: 651 s
SMILES: CCOC(=O)c1c(C)[nH]c(C)c1S(=O)(=O)NCCCN1CCc2ccccc2C1

RP-LC retention time: 646 s
SMILES: CN(C)S(=O)(=O)c1ccc2c(c1)N(CC(=O)NCc1ccccn1)C(=O)C1CCCCN21 (stereo unspecified)

RP-LC retention time: 651 s
SMILES: O=C(NCC1CC1)c1cn(-c2ccc(NC(=O)C3CC3)cn2)cn1

RP-LC retention time: 855 s
SMILES: COc1cccc(CNC(=O)C2(C)CCCN(C(=O)Nc3cccc(C)c3C)C2)c1 (stereo unspecified)

RP-LC retention time: 569 s
SMILES: CCN1CCN(CCCNC(=O)c2cc3sccc3n2C)CC1

RP-LC retention time: 770 s
SMILES: CC(NC(=O)CCc1c(-c2ccc(Br)cc2)nc2ccccn12)c1ccccc1 (stereo unspecified)

RP-LC retention time: 967 s
SMILES: CC1CN(CC(=O)NCc2ccc3c(c2)OCO3)c2ccccc2S1 (stereo unspecified)

RP-LC retention time: 839 s
SMILES: CCn1nc(CNC(=O)c2ccc(F)cc2)c2ccccc21

RP-LC retention time: 744 s
SMILES: O=C(CN1C(=O)c2ccccc2C1=O)NCCS(=O)(=O)N1CCc2ccccc2C1

RP-LC retention time: 630 s
SMILES: COc1ccc(C(=O)c2cccc(N)c2)cc1OC

RP-LC retention time: 776 s
SMILES: O=C(c1ccc(F)c(F)c1)N1CCC(n2c(-c3ccco3)nc3cccnc32)C1 (stereo unspecified)

RP-LC retention time: 767 s
SMILES: CCOc1cc(=O)n2c(c1C(=O)Nc1cccc(SC)c1)CCCC2

RP-LC retention time: 696 s
SMILES: CS(=O)(=O)N1CCOc2ccc(NC(=O)C3CC3)cc2C1

RP-LC retention time: 647 s
SMILES: COCCCn1cc(C(=O)N2CCCC2)c2nn(-c3ccccc3)c(=O)c-2c1

RP-LC retention time: 692 s
SMILES: Cc1ccnc(C(=O)Nc2ccc(Nc3ccc(-n4nc(C)c(C)c4C)nn3)cc2)n1

RP-LC retention time: 796 s
SMILES: CC1CC(=O)N(CC(=O)Nc2cccc(Cl)c2)c2ccccc2S1(=O)=O (stereo unspecified)

RP-LC retention time: 682 s
SMILES: CCCn1cnc2ccc(-c3noc(CNS(=O)(=O)c4ccccc4)n3)cc21

RP-LC retention time: 602 s
SMILES: Cc1ccc(CN2CCC(CNC(=O)C3CCCN(c4cc(=O)n(C)c(=O)n4C)C3)CC2)cc1 (stereo unspecified)

RP-LC retention time: 698 s
SMILES: Cc1oc(-c2ccc(C(=O)NCCN3CCCC3)cc2)nc1COc1ccccc1

RP-LC retention time: 678 s
SMILES: COc1ccc(NC(=O)c2cn(-c3cc(N(C)C)ncn3)cn2)cc1OC

RP-LC retention time: 560 s
SMILES: COCC1(O)CCOC2(CCN(Cc3ccc(F)c(Cl)c3)CC2)C1 (stereo unspecified)

The remaining lines, values behind:

SMILES: CCn1cc(C)c(C(=O)O)c1CC(=O)Nc1ccc2c(c1)OCCO2
RP-LC retention time: 762 s

SMILES: CCOC(=O)c1c(C)[nH]c(CCC(=O)NCc2cn[nH]c2C)c1C
RP-LC retention time: 626 s

SMILES: COc1ccc(CC(=O)N2C[C@@H]3C[C@H]2C[C@@H]3NS(=O)(=O)c2ccccc2)cc1
RP-LC retention time: 768 s

SMILES: CCOC(=O)COc1cc(-c2ccccc2)nc2ccc(NC(=O)c3ccco3)cc12
RP-LC retention time: 743 s

SMILES: O=C(Nc1ccccc1C(F)(F)F)N1CCN(c2nc3c(F)cc(F)cc3s2)CC1
RP-LC retention time: 942 s

SMILES: COc1ccc(-c2nnc(-c3ccc(C)c(S(=O)(=O)N4CCSCC4)c3)o2)cc1OC
RP-LC retention time: 970 s

SMILES: CCOc1ccc(NC(=O)NCCc2cn(CC)c3ncccc23)cc1
RP-LC retention time: 704 s

SMILES: CCC(C)NC(=O)c1n[nH]c2c1CC(C)CC2 (stereo unspecified)
RP-LC retention time: 777 s

SMILES: Cc1ccc(OCC(=O)N2C[C@@H]3C[C@H]2C[C@@H]3NS(=O)(=O)c2ccccc2)cc1
RP-LC retention time: 764 s

SMILES: Cc1cccc(-n2nc(C)c3sc(N(C)CC(=O)N4CCN(c5ccccn5)CC4)nc32)c1
RP-LC retention time: 700 s

SMILES: CC(=O)N1CCc2cc(N3CC(C(=O)NCc4ccc(F)cc4)CC3=O)ccc21 (stereo unspecified)
RP-LC retention time: 740 s

SMILES: NS(=O)(=O)c1cccnc1Nc1ccc(Oc2ccccc2)cc1
RP-LC retention time: 953 s

SMILES: CC(C)CCNC(=O)C1(C)CN(S(=O)(=O)c2ccccc2)CC(=O)N1CCCN1CCCCC1 (stereo unspecified)
RP-LC retention time: 674 s

SMILES: Cc1cnc(CC2CCN(S(=O)(=O)c3ccc(C#N)cc3)C2)n1C1CC1 (stereo unspecified)
RP-LC retention time: 654 s

SMILES: CCCN(C(=O)c1ccccc1OC)c1nc(-c2ccccc2)cs1
RP-LC retention time: 1310 s

SMILES: O=C(Nc1cccc(F)c1)C1CCN(S(=O)(=O)c2ccc3[nH]c(=O)ccc3c2)CC1
RP-LC retention time: 736 s

SMILES: Cc1nc2cc(-c3noc(Cc4c(F)cccc4Cl)n3)ccc2o1
RP-LC retention time: 1050 s

SMILES: COc1ccc(Nc2nc(C(=O)Nc3ccc4c(c3)OCCO4)cs2)c(OC)c1
RP-LC retention time: 865 s

SMILES: O=C(c1cccc2c1CCN2C(=O)c1ccc(F)cc1)N1CCOCC1
RP-LC retention time: 704 s

SMILES: CCOc1ccc(N(C)C(=O)C2CCCN2S(=O)(=O)c2cc(C(=O)OC)n(C)c2)cc1 (stereo unspecified)
RP-LC retention time: 825 s

SMILES: CC(C)n1nc(CNC(=O)Cc2ccsc2)c2ccccc21
RP-LC retention time: 850 s

SMILES: Cc1ccc(-n2c(=O)n(CC(=O)NCCCN(C)C)c3cccnc32)cc1
RP-LC retention time: 593 s

SMILES: O=C(c1cccc(Br)c1)N1CCN(c2cc(-c3ccc(F)cc3)[nH]n2)CC1
RP-LC retention time: 864 s

SMILES: CCOC(=O)C1=C(CN(C)Cc2ccccc2)NC(=O)NC1c1ccc(F)cc1 (stereo unspecified)
RP-LC retention time: 663 s

SMILES: COc1cccc(Cc2nc(-c3cn(-c4cccc(F)c4)nn3)no2)c1
RP-LC retention time: 993 s

SMILES: CCOC(=O)c1c(C)[nH]c(C(=O)N2CCC(CC(=O)NC(C)C)CC2)c1C
RP-LC retention time: 683 s

SMILES: Cc1cccc(NC(=O)N2CC(N(C3CCOCC3)S(C)(=O)=O)C2)c1
RP-LC retention time: 706 s

SMILES: O=C(Cn1c(=O)c2nncn2c2ncccc21)N1CCN(c2ccc(Cl)cc2)CC1
RP-LC retention time: 744 s

SMILES: O=C(Nc1ccccc1)C1CCCN(c2ncnc3c2oc2ccccc23)C1 (stereo unspecified)
RP-LC retention time: 798 s

SMILES: Cc1sc(-c2nc(C(C)C)cs2)cc1S(=O)(=O)NC1CCCC1
RP-LC retention time: 1240 s

SMILES: Cc1cccc(C)c1NC(=O)Cn1nc(N2CCSCC2)c2ccccc2c1=O
RP-LC retention time: 892 s

SMILES: Cc1sc(NC(=O)c2cccs2)nc1-c1ccccc1
RP-LC retention time: 1070 s

SMILES: Cn1c(=O)n([C@H]2CCCN(S(=O)(=O)Cc3ccccc3)C2)c2ncccc21
RP-LC retention time: 827 s

SMILES: COc1ccc(NC(=O)C2CCCN(c3nc4ccccc4nc3C(F)(F)F)C2)c(OC)c1 (stereo unspecified)
RP-LC retention time: 1190 s

SMILES: CCCOc1ccc(C(=O)Nc2nnc(C3CC(=O)N(c4ccccc4)C3)o2)cc1 (stereo unspecified)
RP-LC retention time: 800 s

SMILES: Cc1nc([C@@H]2CN(C(=O)CCc3nc4ccccc4[nH]3)C[C@H]2C(N)=O)n[nH]1
RP-LC retention time: 506 s

SMILES: O=C(NCc1ccc(F)cc1Cl)c1cn2c(n1)CCCC2
RP-LC retention time: 607 s

SMILES: COC(=O)C1=CN(c2ccc(C)cc2C)c2ccccc2S1(=O)=O
RP-LC retention time: 869 s

SMILES: COc1ccc(C)cc1NC(=O)NCCNC(=O)c1ccc(NC(=O)C2CCCC2)cc1
RP-LC retention time: 759 s

SMILES: COc1ccc(Cl)cc1NC(=O)COc1cc(C)nc(N2CCCC2)n1
RP-LC retention time: 613 s

SMILES: Clc1ccc(Nc2c(-c3ccc(N4CCOCC4)cc3)nc3cnccn23)cc1
RP-LC retention time: 842 s

SMILES: CC(C)c1nnc(-c2ccc(S(=O)(=O)N3CCCC3)o2)o1
RP-LC retention time: 815 s

SMILES: Cc1cc2c(cc1C(=O)NCc1ccc3c(c1)CCCO3)OCCCO2
RP-LC retention time: 872 s

SMILES: CCCCNC(=O)CCCn1c(=O)c2cccn2c2ccccc21
RP-LC retention time: 780 s

SMILES: CCCN(CC(=O)N1CCc2sccc2C1COc1ccccc1OC)C(=O)C1CC1 (stereo unspecified)
RP-LC retention time: 922 s

SMILES: O=C(Cc1cccc(Cl)c1)NC1CCN(c2cc(-c3ccc(F)cc3)[nH]n2)C1 (stereo unspecified)
RP-LC retention time: 741 s

SMILES: CC(C)(C)C(O)CCNC(=O)Cc1cccs1 (stereo unspecified)
RP-LC retention time: 673 s

SMILES: S=c1cc(N2CCSCC2)[nH]cn1
RP-LC retention time: 602 s

SMILES: Cc1cccc(-c2noc(-c3ccc(N4CCN(C)CC4)nc3)n2)c1
RP-LC retention time: 708 s

SMILES: Cc1ccc(-c2nc(C3CC(=O)N(c4ccc(F)c(Cl)c4)C3)no2)cc1 (stereo unspecified)
RP-LC retention time: 1160 s
